Experimental data reported in PubChem BioAssay AID330 (DTP/NCI, 2004).
“And” between values parts separate entries of the source, which are not always exact repeats. Equal entries are not always repeated. Inconclusive results and toxic doses are left out. Rule for the calls: active = survival T/C of 150% or more; inactive = T/C below 125% in these data.

System: P388 leukemia ip, CD2F1 mice, survival T/C
Experiment: NCI In Vivo Anticancer Drug Screen. Data for tumor model P388 Leukemia (intraperitoneal) in CD2F1 (CDF1) mice
Conditions: endpoint: median survival time, higher = longer survival
In short: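 Mice carrying the transplanted tumor received test compound or vehicle. Survival was recorded in each group, and the value is the treated-group measurement divided by that of the vehicle-treated control group.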

[1] = dose: 50.0 mg/kg/injection, schedule: Q01DX005 (ip), vehicle: Klucel (hydroxypropylcellulose) (HPC)
[2] = dose: 100.0 mg/kg/injection, schedule: Q01DX005 (ip), vehicle: Klucel (hydroxypropylcellulose) (HPC)
[3] = dose: 200.0 mg/kg/injection, schedule: Q01DX005 (ip), vehicle: Klucel (hydroxypropylcellulose) (HPC)
[4] = dose: 60.0 mg/kg/injection, schedule: Q01DX005 (ip), vehicle: saline with Tween-80
[5] = dose: 120.0 mg/kg/injection, schedule: Q01DX005 (ip), vehicle: saline with Tween-80
[6] = dose: 60.0 mg/kg/injection, schedule: Q01DX005 (ip), vehicle: Klucel (hydroxypropylcellulose) (HPC)
[7] = dose: 120.0 mg/kg/injection, schedule: Q01DX005 (ip), vehicle: Klucel (hydroxypropylcellulose) (HPC)
[8] = dose: 240.0 mg/kg/injection, schedule: Q01DX005 (ip), vehicle: Klucel (hydroxypropylcellulose) (HPC)
[9] = dose: 240.0 mg/kg/injection, schedule: Q01DX005 (ip), vehicle: saline with Tween-80
[10] = dose: 25.0 mg/kg/injection, schedule: Q01DX009 (ip), vehicle: saline with Tween-80

Measured: T/C

COC(=O)C1C(=O)C2OC1C1OC(C)(C)OC21 (stereo not given)
inactive: [1] 94 % of control | [2] 103 % of control | [3] 104 % of control

CSc1nnc(CCC(=O)Nc2ccc(Cl)cc2Cl)o1
inactive: [4] 106 % of control | [5] 108 % of control

CC(C)(C)C1=CC(C#N)N(Cc2ccccc2)CC1 (stereo not given)
inactive: [6] 110 % of control | [7] 108 % of control | [8] 109 % of control

O=C1c2ccccc2C(=O)N1CC[P+](Cc1ccccc1)(Cc1ccccc1)Cc1ccccc1
inactive: dose: 0.78 mg/kg/injection, schedule: Q01DX009 (ip), vehicle: other 105 % of control | dose: 1.56 mg/kg/injection, schedule: Q01DX009 (ip), vehicle: other 97 % of control | dose: 3.13 mg/kg/injection, schedule: Q01DX009 (ip), vehicle: other 97 % of control | dose: 6.25 mg/kg/injection, schedule: Q01DX009 (ip), vehicle: other 106 % of control | dose: 12.5 mg/kg/injection, schedule: Q01DX009 (ip), vehicle: other 99 % of control and 90 % of control | dose: 25.0 mg/kg/injection, schedule: Q01DX009 (ip), vehicle: other 112 % of control and 91 % of control | dose: 50.0 mg/kg/injection, schedule: Q01DX009 (ip), vehicle: other 105 % of control | dose: 100.0 mg/kg/injection, schedule: Q01DX009 (ip), vehicle: other 89 % of control

Cc1cc(C)c2c(=O)c3c(oc2c1)O[C@@](C)(CO)C[C@@H]3c1ccccc1
inactive: [4] 101 % of control | [5] 98 % of control | [9] 106 % of control

Cc1ccc(S(=O)(=O)Nc2ccc(-c3cc4cc(Cl)ccc4o3)cc2)cc1
inactive: dose: 6.25 mg/kg/injection, schedule: Q01DX005 (ip), vehicle: saline with Tween-80 92 % of control | dose: 12.5 mg/kg/injection, schedule: Q01DX005 (ip), vehicle: saline with Tween-80 91 % of control | dose: 25.0 mg/kg/injection, schedule: Q01DX005 (ip), vehicle: saline with Tween-80 87 % of control

O=C1CC(c2ccccc2)C(c2ccccc2)CO1 (stereo not given)
inactive: dose: 25.0 mg/kg/injection, schedule: Q04DX003 (ip), vehicle: Klucel (hydroxypropylcellulose) (HPC) 91 % of control | dose: 50.0 mg/kg/injection, schedule: Q04DX003 (ip), vehicle: Klucel (hydroxypropylcellulose) (HPC) 92 % of control | dose: 100.0 mg/kg/injection, schedule: Q04DX003 (ip), vehicle: Klucel (hydroxypropylcellulose) (HPC) 88 % of control and 92 % of control | dose: 400.0 mg/kg/injection, schedule: Q04DX003 (ip), vehicle: Klucel (hydroxypropylcellulose) (HPC) 87 % of control

COC(=O)C1(C)CCCC2(C)c3cc(OC)ccc3C3(CC12)OCCS3 (stereo not given)
inactive: dose: 2.5 mg/kg/injection, schedule: Q01DX009 (ip), vehicle: saline with Tween-80 100 % of control | dose: 5.0 mg/kg/injection, schedule: Q01DX009 (ip), vehicle: saline with Tween-80 98 % of control | dose: 10.0 mg/kg/injection, schedule: Q01DX009 (ip), vehicle: saline with Tween-80 92 % of control

O=C(O)CNc1ccccc1Br
inactive: [1] 105 % of control | [2] 97 % of control | [3] 96 % of control

N#CC1=C(C#N)C(=O)C(Br)=C(Br)C1=O
inactive: dose: 12.5 mg/kg/injection, schedule: Q01DX005 (ip), vehicle: Klucel + Tween-80 108 % of control | dose: 25.0 mg/kg/injection, schedule: Q01DX005 (ip), vehicle: Klucel + Tween-80 106 % of control | dose: 50.0 mg/kg/injection, schedule: Q01DX005 (ip), vehicle: Klucel + Tween-80 108 % of control

CC(C(=O)O)c1ccc2c(c1)[nH]c1ccc(Cl)cc12 (stereo not given)
inactive: dose: 6.25 mg/kg/injection, schedule: Q01DX009 (ip), vehicle: saline with Tween-80 106 % of control | dose: 12.5 mg/kg/injection, schedule: Q01DX009 (ip), vehicle: saline with Tween-80 106 % of control | [10] 105 % of control

COc1cc2c(c(OC)c1OC)-c1cc3c(cc1C(OC1OC4COC(C)OC4C(O)C1O)C1COC(=O)C1C2)OCO3 (stereo not given)
inactive: dose: 17.5 mg/kg/injection, schedule: Q01DX005 (ip), vehicle: Klucel (hydroxypropylcellulose) (HPC) 103 % of control | dose: 35.0 mg/kg/injection, schedule: Q01DX005 (ip), vehicle: Klucel (hydroxypropylcellulose) (HPC) 101 % of control | dose: 70.0 mg/kg/injection, schedule: Q01DX005 (ip), vehicle: Klucel (hydroxypropylcellulose) (HPC) 119 % of control | dose: 140.0 mg/kg/injection, schedule: Q01DX005 (ip), vehicle: Klucel (hydroxypropylcellulose) (HPC) 119 % of control

O=C1C2=C(Nc3ccccc3N2)OC1c1ccc(C2OC3=C(Nc4ccccc4N3)C2=O)cc1 (stereo not given)
inactive: [6] 88 % of control | [7] 88 % of control | [8] 87 % of control

O=[N+]([O-])c1cc([N+](=O)[O-])c(N2CC2)cc1C1=NCCO1
inactive: dose: 50.0 mg/kg/injection, schedule: Q01DX009 (ip), vehicle: Klucel (hydroxypropylcellulose) (HPC) 98 % of control | dose: 100.0 mg/kg/injection, schedule: Q01DX009 (ip), vehicle: Klucel (hydroxypropylcellulose) (HPC) 110 % of control

CC(=O)NCC1CC2(Cl)C(Cl)=C(Cl)C1(Cl)C2(Cl)Cl (stereo not given)
inactive: [1] 101 % of control | [2] 106 % of control | [3] 106 % of control

Nc1nnc2n(N)cnn12
inactive: dose: 100.0 mg/kg/injection, schedule: Q04DX002 (ip), vehicle: water 114 % of control | dose: 200.0 mg/kg/injection, schedule: Q04DX002 (ip), vehicle: water 109 % of control | dose: 400.0 mg/kg/injection, schedule: Q04DX002 (ip), vehicle: water 106 % of control

CS(=O)Cc1cc(-c2ccccc2)no1 (stereo not given)
inactive: [4] 99 % of control | [5] 104 % of control | [9] 97 % of control

Nc1cccc(-n2ccnc2)c1
inactive: dose: 100.0 mg/kg/injection, schedule: Q04DX002 (ip), vehicle: saline with Tween-80 100 % of control | dose: 200.0 mg/kg/injection, schedule: Q04DX002 (ip), vehicle: saline with Tween-80 93 % of control | dose: 400.0 mg/kg/injection, schedule: Q04DX002 (ip), vehicle: saline with Tween-80 90 % of control

COc1ccc(C(c2cc3c(cc2O)OCO3)N2CCN(C(c3ccc(OC)cc3)c3cc4c(cc3O)OCO4)CC2)cc1 (stereo not given)
inactive: [4] 87 % of control | [5] 92 % of control | [9] 87 % of control

CSC(=S)/C(=C/Nc1ncccn1)c1ccccc1
inactive: dose: 30.0 mg/kg/injection, schedule: Q01DX005 (ip), vehicle: Klucel (hydroxypropylcellulose) (HPC) 87 % of control | [7] 89 % of control

C[n+]1cc2ccccc2c2ccccc21
inactive: dose: 3.13 mg/kg/injection, schedule: Q01DX009 (ip), vehicle: saline 108 % of control | dose: 6.25 mg/kg/injection, schedule: Q01DX009 (ip), vehicle: saline 117 % of control | dose: 12.5 mg/kg/injection, schedule: Q01DX005 (ip), vehicle: saline 100 % of control | dose: 12.5 mg/kg/injection, schedule: Q01DX009 (ip), vehicle: saline 120 % of control | dose: 25.0 mg/kg/injection, schedule: Q01DX005 (ip), vehicle: saline 110 % of control | dose: 25.0 mg/kg/injection, schedule: Q01DX009 (ip), vehicle: water 122 % of control | dose: 50.0 mg/kg/injection, schedule: Q01DX005 (ip), vehicle: saline 101 % of control | dose: 50.0 mg/kg/injection, schedule: Q01DX009 (ip), vehicle: water 113 % of control

Clc1ccc(C2NCCNCc3ccccc32)cc1 (stereo not given)
inactive: [10] 101 % of control | dose: 50.0 mg/kg/injection, schedule: Q01DX009 (ip), vehicle: saline with Tween-80 107 % of control | dose: 100.0 mg/kg/injection, schedule: Q01DX009 (ip), vehicle: saline with Tween-80 98 % of control and 115 % of control
